Laboratory results published in EP0367747A2, “Dideoxy-L-arabinitol derivatives as antiviral compounds” (G.D. Searle & Co., priority 1988, dated 1990).
Marks after values point to notes of the source that are not given here.

Experiments:
almond beta-glucosidase [1] = test: Beta-glucosidase inhibition assay, pH 7.4 (p-nitrophenol release); type: biochemical; details: for β-Glucosidase pH 7.4 % Inhibition: Table 5
Method: (§1) Yeast alpha-glucosidase and almond beta-glucosidase activities were measured by a modification of the method of Evans, et al., Phytochemistry 22, 768-770 (1983). The modifications included 1) assay of activities at pH 7.4 in HEPES (N-2-hydroxyethylpiperazine-N′-2-ethanesulfonic acid) buffer, 2) measurement in 96 well microtiter plates and 3) inclusion of 10% DMSO in control and test samples. The release of p-nitrophenol from the substrate p-nitrophenylglycoside was measured spectrophotometrically in the presence and absence of test compound. Each assay included a known inhibitor of the enzyme as a standard. IC₅₀ values were determined for compounds which inhibited the enzymes more than 50% at a 1 millimolar concentration. To 100 µl 50 mM HEPES buffer, pH 7.4, in a microtiter plate, add 20 µl test compound in DMSO (DMSO alone in control), 40 µl (0.136 units) beta-glucosidase (Sigma) in HEPES buffer and pre-incubate at room temperature for 15 minutes. […] Absorption change was measured at 15 to 25 minutes (reaction is linear for at least 30 minutes). Each sample was tested in triplicate. IC₅₀ values were determined from the linear portion of the log concentration vs % inhibition curve obtained from a minimum of 3 points. Castanospermine was used as standard inhibitor.

Yeast alpha-glucosidase = biological target: T1, Yeast alpha-glucosidase (Saccharomyces cerevisiae, UniProt P53341); test: Alpha-glucosidase inhibition assay, pH 7.4 (p-nitrophenol release); type: biochemical; details: for inhibition at 100 µM / inhibition at 1000 µM: Table 5, read-out: α-Glucosidase % Inhibition; for inhibition at 1000 µM: at 1.0 mM
T1 construct: purchased Sigma
Method: as §1, with “µl (0.013” for “µl (0.136”, “units) yeast alpha-glucosidase” for “units) beta-glucosidase”, “(reaction was” for “(reaction is”, “points. Deoxynojirimycin” for “points. Castanospermine”

almond beta-glucosidase [2] = test: Beta-glucosidase inhibition assay, pH 4.8 (p-nitrophenol release); type: biochemical; details: for β-Glucosidase pH 4.8 % Inhibition: Table 5
Method: Yeast alpha-glucosidase and almond beta-glucosidase activities were measured by a modification of the method of Evans, et al., Phytochemistry 22, 768-770 (1983). The modifications included 1) assay of activities at pH 7.4 in HEPES (N-2-hydroxyethylpiperazine-N′-2-ethanesulfonic acid) buffer, 2) measurement in 96 well microtiter plates and 3) inclusion of 10% DMSO in control and test samples. The release of p-nitrophenol from the substrate p-nitrophenylglycoside was measured spectrophotometrically in the presence and absence of test compound. Each assay included a known inhibitor of the enzyme as a standard. IC₅₀ values were determined for compounds which inhibited the enzymes more than 50% at a 1 millimolar concentration. To 100 µl 50 mM sodium citrate buffer, pH 4.8, in a microtiter plate, add 15 µl test compound in DMSO (DMSO alone in control), 20 µl (.017 units) beta-glucosidase (Sigma) in citrate buffer and pre-incubate at room temperature for 15 minutes. Add 25 µl 2.50 mM p-nitrophenyl-beta-D-glucopyranside in citrate buffer, as substrate. Incubate at room temperature 20 minutes (reaction is linear for at least 30 minutes). Add 50 µl 0.4 M NaOH. Read absortion change at 405 nm in a Biotek EIA Autoreader. Each sample was tested in triplicate. IC₅₀ values were determined from the linear portion of the log concentration vs % inhibition curve obtained from a minimum of 3 points. Castanospermine was used as standard inhibitor.

visna virus = test: Inhibition of visna virus in vitro (plaque reduction assay / 96 well plate assay) in SCP cells; type: cell-based; design: key to Antiviral Activity: A = active compound; I = inactive; details: for EC50: inhibition of visna virus, read-out: EC₅₀; for Antiviral Activity: Table 4
Method: Various compounds as prepared above were tested for inhibition of visna virus in vitro in a plaque reduction assay as follows:
Sheep choroid plexus(SCP) cells were obtained from American Type Culture Collection (ATCC) catalogue number CRL 1700 and were routinely passaged in vitro in Dulbecco's Modified Eagles (DME) medium supplemented with 20% fetal bovine serum (FBS). SCP cells were passaged once per week at a 1:2 or 1:3 split ratio. Visna was titrated by plaque assay in six-well plates. Virus pools were stored at -70°C.
(§2) SCP cells were cultured in 6-well plates to confluence. Wells were washed two times with serum free Minimal Essential Medium (MEM) to remove FBS. 0.2ml of virus was added per well in MEM supplemented with 4mM glutamine and gentamycin. After 1 hour adsorption, the virus was aspirated from each well. The appropriate concentration of each compound in 5 ml of Medium 199 (M-199) supplemented with 2% lamb serum, 4mM glutamine, 0.5% agarose and gentamycin was added to each well. Cultures were incubated at 37°C in a humidified 5% CO₂ incubator for 3-4 weeks. To terminate the test: cultures were fixed in 10% formalin, the agar removed, the monolayers stained with 1% crystal violet and plaques counted. Each compound concentration was run in triplicate. […] 0 is no toxicity observed while 4 is total lysing of the cell monolayer.
The 96 well plate assay was performed similarly to the plaque assay above with modifications. SCP cells were seeded at 1 x 10⁴ cells per well in 0.1 ml DME medium. When confluent, the wells were washed with serum free MEM and 25ul of virus added in M-199 supplemented with 2% lamb serum. After 1 hour, 75uL of medium containing test compound was added to each well containing virus. After 2-3 weeks incubation the cytopathic effect of the virus was determined by staining with a vital stain. Cell viability was measured by determining stain density using a 96 well plate reader.

[3] = test system: Sheep choroid plexus(SCP) cells; test: Toxicity of compounds in control wells without virus, graded morphologically 0 to 4; type: cell-based; design: key: 0 = no toxicity; 4 = total cell lyses; details: 0 to 4 scale
Method: as §2
Control wells without virus were completed to determine the toxicity of compounds.

T1 sequence (P53341 whole entry): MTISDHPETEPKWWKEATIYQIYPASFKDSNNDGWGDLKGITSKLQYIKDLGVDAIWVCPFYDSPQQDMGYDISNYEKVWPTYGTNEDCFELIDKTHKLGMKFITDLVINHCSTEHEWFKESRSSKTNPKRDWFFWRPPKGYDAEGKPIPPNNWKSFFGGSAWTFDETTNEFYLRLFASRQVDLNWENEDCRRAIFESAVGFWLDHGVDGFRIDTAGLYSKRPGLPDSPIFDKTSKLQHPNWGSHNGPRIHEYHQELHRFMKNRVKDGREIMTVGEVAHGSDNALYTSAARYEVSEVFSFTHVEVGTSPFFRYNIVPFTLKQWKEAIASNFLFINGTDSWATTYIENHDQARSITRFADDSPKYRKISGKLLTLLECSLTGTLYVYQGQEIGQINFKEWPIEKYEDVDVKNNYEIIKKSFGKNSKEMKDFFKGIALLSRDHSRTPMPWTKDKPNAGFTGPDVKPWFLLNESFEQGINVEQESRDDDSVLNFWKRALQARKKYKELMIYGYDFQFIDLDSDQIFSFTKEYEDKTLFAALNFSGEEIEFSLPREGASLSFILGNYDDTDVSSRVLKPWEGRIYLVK

Compound	β-Glucosidase pH 7.4 % Inhibition (almond beta-glucosidase [1]; at 100 µM (***))	inhibition at 100 µM (Yeast alpha-glucosidase)	β-Glucosidase pH 4.8 % Inhibition (almond beta-glucosidase [2]; at 100 µM (***))	EC50 (visna virus; Visna-maedi virus)	Toxicity ([3]; Table 4, 0.1 mM Concn.)	Toxicity ([3]; Table 4, 1.0 mM Concn.)	β-Glucosidase pH 7.4 % Inhibition (almond beta-glucosidase [1]; at 1.0 mM)	inhibition at 1000 µM (Yeast alpha-glucosidase)	β-Glucosidase pH 4.8 % Inhibition (almond beta-glucosidase [2]; at 1.0 mM)	Antiviral Activity (visna virus; 0.01 mM Concn.)	Antiviral Activity (visna virus; 0.1 mM Concn.)	Toxicity ([3]; Table 4, 0.01 mM Concn.)	also measured
CCCCN1CC(OC(=O)CCC)C(OC(=O)CCC)C1COC(=O)CCC [Example 26, 1,4-(Butylimino)-1,4-dideoxy-L-arabinitol, tributyrate]	1%***	20%	1%***	1000 µM	0	2	–	–	–	–	–	–	–
CC(=O)OCCN1C[C@H](OC(C)=O)[C@@H](OC(C)=O)[C@@H]1COC(C)=O [Example 3, 1,4-([2-Acetyloxyethyl]imino)-1,4-dideoxy-L-arabinitol, triacetate]	–	–	–	–	–	–	5%	15%	12%	–	–	–	inhibition at 1 µM (visna virus; Visna-maedi virus, Concentration 0.001 mM): -46%; inhibition at 10 µM (visna virus; Visna-maedi virus, Concentration 0.01 mM): -64%; inhibition at 100 µM (visna virus; Visna-maedi virus, Concentration 0.1 mM): 72%; inhibition at 1000 µM (visna virus; Visna-maedi virus, Concentration 1.0 mM): 90%; Toxicity ([3]; Concentration 0.001 mM): 0; Toxicity ([3]; Concentration 0.01 mM): 0; Toxicity ([3]; Concentration 0.1 mM): 0; Toxicity ([3]; Concentration 1.0 mM): 0
CC(=O)OC[C@H]1[C@H](OC(C)=O)[C@@H](OC(C)=O)CN1C(=O)OCc1ccccc1 [Example 20, 1,4-(Benzyloxycarbonylimino)-1,4-dideoxy-L-arabinitol, triacetate]	–	–	–	1000 µM	0	0	6%	18%	5%	–	–	–	–
CCC(=O)OC[C@H]1[C@H](OC(=O)CC)[C@@H](OC(=O)CC)CN1C(=O)OCc1ccccc1 [Example 29, 1,4-(Benzyloxycarbonylimino)-1,4-dideoxy-L-arabinitol, tripropionate]	5%***	41%	2%***	–	0	–	–	–	–	A	A	0	Antiviral Activity (visna virus; 0.001 mM Concn.): A; Toxicity ([3]; Table 4, 0.001 mM Concn.): 0
CC(=O)OC[C@H]1[C@H](OC(C)=O)[C@@H](OC(C)=O)CN1C(=O)Cc1ccccc1 [Example 28, 1,4-(Phenylacetylimino)-1,4-dideoxy-L-arabinitol, triacetate]	–	–	–	1000 µM	0	1	6%	30%	0%	A	A	0	Antiviral Activity (visna virus; 1.0 mM Concn.): A
CN1CC(O)C(O)C1CO [Example 18, 1,4-(Methylimino)-1,4-dideoxy-L-arabinitol]	–	–	–	100 µM	–	–	–	–	–	–	–	–	IC50 (almond beta-glucosidase [1]; Table 3, at pH 7.4, read-out: β-glucosidase IC₅₀): 23 µM; IC50 (Yeast alpha-glucosidase; Table 3, pH 7.4, read-out: α-glucosidase IC₅₀): 46 µM; IC50 (almond beta-glucosidase [2]; Table 3, at pH 4.8, read-out: β-glucosidase IC₅₀): 36 µM
